Reference: publication PMC8802806, “Synthesis and Antitumor Activity of Erlotinib Derivatives Linked With 1,2,3-Triazole” (Frontiers in Pharmacology, 2022)
Values joined by “and” are separate entries in the source; they are usually repeats but may differ in a detail not shown here. Equal entries are not always repeated. Where two headings read alike, the source gives them in different places.

Columns and labels:
Type in all cases: cell-based, human
HeLa cells [1] = test: Cell antiproliferative activity assay (CCK8); conditions: Homo sapiens; for IC50: HeLa; for inhibition at 0.25 µM: 250 nM; for inhibition at 0.5 µM: 500 nM; for inhibition at 1 µM: 1000 nM; for inhibition at 2 µM: 2000 nM; for inhibition at 4 µM: 4000 nM; for inhibition at 8 µM: 8000 nM; for inhibition at 16 µM: 16000 nM
Description: Cell antiproliferative activity was evaluated by the Cell Counting Kit-8 (CCK8, DOJINDO, Japan) assay. The cells were seeded at a density of 2,000 cells per well into 96-well microplate in 100 μl of growth medium. Cells were incubated at 37°C and 5% CO2 overnight. The next day, 100 μl per well of diluted inhibitor in growth medium was added with the final concentration from 0.1 nM to 100 μM. The cells were treated with DMSO as control. A series of dilutions are made in 0.1% DMSO in assay medium so that the final concentration of DMSO is 0.1% in all of treatments. Cells were incubated at 37°C and 5% CO2 for 48 h. Then, 10 μl of CCK8 was added to each well. The plates were incubated at 37°C for 2 h; after that, the plates were recorded by measuring absorbance at 450 nm with the reference wavelength of 630 nm using an EnVision Multilabel Reader (PerkinElmer). The IC50 values were calculated using GraphPad Prism 6.0 software and determined by the concentration causing a half-maximal percent activity. All assays were conducted with three parallel samples and three repetitions.

HeLa cells [2] = test: Flow cytometry detection for cell apoptosis (Annexin V/PI); conditions: for Q1 (flow cytometry quadrant, Figure 4A) / Q4 (flow cytometry quadrant, Figure 4A) / Q2: FITC-A+ , PE-A+ Freq. of Parent / Q3: FITC-A+ , PE-A- Freq. of Parent: Annexin V/PI; for Q2: FITC-A+ , PE-A+ Freq. of Parent / Q3: FITC-A+ , PE-A- Freq. of Parent / Q2+Q3 (column without head, sum on percent scale): single samples
Description: Cell-apoptosis analysis was carried out by flow cytometry using the Annexin V/PI apoptosis kit (Solarbio, China) according to the manufacturer’s manual. Briefly, HeLa (5 × 10^4/well) cells were seeded in 12-well plates for 24 h and then treated with 0.1% DMSO (as control) or various concentrations of compounds 4d, 4k, and 4l for 72 h, respectively. Cells were harvested, washed with PBS, and then incubated with 100 μl of 1 × Annexin V binding buffer containing 1 μl FITC Annexin V for 10 min at RT in the dark. Cells were incubated for another 5 min at room temperature (RT) in the dark after 1 μl PI was added. PBS (200 µl) was added to each tube for flow cytometry analysis (BriCyte E6). The percentages of apoptotic cells were analyzed using FlowJo soft.

HeLa cells [3] = test: Colony formation assay; conditions: for effect on cell colony formation: 2 weeks
Description: HeLa cells were seeded in six-well plates at the density of 500/well for 24 h, and then treated with 0.1% DMSO (as control), various concentrations of compounds 4d, 4k, and 4l, respectively. The cells were incubated for 2 weeks in a 5% CO2 environment at 37°C for colony formation. The media was gently removed from each of the plates, and then each plate was washed with PBS twice. The colonies were fixed with 4% polyformaldehyde for 10 min and then wash the cells with ddH2O twice. Stain with 1 ml Crystal Violet Staining Solution (Beyotime, China) for 10 min. Wash excess crystal violet with ddH2O and allow dishes to dry. Take pictures of the plate and count the colonies.

[4] = HELA 2000cells/well, Repeat1, read-out: Inhibition (%) Repeat1
[5] = HELA 2000cells/well, Repeat2, read-out: Inhibition (%) Repeat2

COCCOc1cc2ncnc(Nc3cccc(-c4cn(Cc5cc(Br)cc(Br)c5)nn4)c3)c2cc1OCCOC [Compound 4d, [6,7-Bis-(2-methoxy-ethoxy)-quinazolin-4-yl]-{3-[1-(3,5-dibromo-benzyl)-1H-[1,2,3]triazol-4-yl]-phenyl}-amine]
IC50 (HeLa cells [1]; 48 h, HeLa cells, CCK8, 48 h, mean ± SD, n = 3, read-out: IC50 (μM) HeLa): 7.02 ± 0.04 µM
IC50 (HeLa cells [1]; HELA 2000cells/well, supplement DataSheet2, Repeat1, read-out: IC50 Repeat1): 7.07 µM
IC50 (HeLa cells [1]; HELA 2000cells/well, supplement DataSheet2, Repeat 2, read-out: IC50 Repeat 2): 6.98 µM
IC50 (HeLa cells [1]; HELA 2000cells/well, supplement DataSheet2, mean of two repeats ± SD, read-out: IC50 mean±SD): 7.025 ± 0.0445 µM
inhibition at 0.25 µM (HeLa cells [1]; [4]): 9.75%
inhibition at 0.25 µM (HeLa cells [1]; [5]): 0%
inhibition at 0.5 µM (HeLa cells [1]; [4]): 13%
inhibition at 0.5 µM (HeLa cells [1]; [5]): 13.6%
inhibition at 1 µM (HeLa cells [1]; [4]): 16.9%
inhibition at 1 µM (HeLa cells [1]; [5]): 14%
inhibition at 2 µM (HeLa cells [1]; [4]): 17%
inhibition at 2 µM (HeLa cells [1]; [5]): 15.3%
inhibition at 4 µM (HeLa cells [1]; [4]): 25.3%
inhibition at 4 µM (HeLa cells [1]; [5]): 26.6%
inhibition at 8 µM (HeLa cells [1]; [4]): 53.2%
inhibition at 8 µM (HeLa cells [1]; [5]): 54.6%
inhibition at 16 µM (HeLa cells [1]; [4]): 78.2%
inhibition at 16 µM (HeLa cells [1]; [5]): 78.4%
Q1 (flow cytometry quadrant, Figure 4A) (HeLa cells [2]; 3 μM, 72 h): 5.78%
Q4 (flow cytometry quadrant, Figure 4A) (HeLa cells [2]; 3 μM, 72 h): 84.2%
Q2: FITC-A+ , PE-A+ Freq. of Parent (HeLa cells [2]; 3 μM, 72 h): 9.25%
Q3: FITC-A+ , PE-A- Freq. of Parent (HeLa cells [2]; 3 μM, 72 h): 0.82%
Q2: FITC-A+ , PE-A+ Freq. of Parent (HeLa cells [2]; 3 μM, 72 h, listed as e4): 6.79% and 7.35% and 9.25%
Q3: FITC-A+ , PE-A- Freq. of Parent (HeLa cells [2]; 3 μM, 72 h, listed as e4): 1.73% and 1.08% and 0.82%
Q2+Q3 (column without head, sum on percent scale) (HeLa cells [2]; 3 μM, listed as e4): 8.52 and 8.43 and 10.07
Q1 (flow cytometry quadrant, Figure 4A) (HeLa cells [2]; 6 μM, 72 h): 5.52%
Q4 (flow cytometry quadrant, Figure 4A) (HeLa cells [2]; 6 μM, 72 h): 81.2%
Q2: FITC-A+ , PE-A+ Freq. of Parent (HeLa cells [2]; 6 μM, 72 h): 10.5%
Q3: FITC-A+ , PE-A- Freq. of Parent (HeLa cells [2]; 6 μM, 72 h): 2.69%
Q2: FITC-A+ , PE-A+ Freq. of Parent (HeLa cells [2]; 6 μM, 72 h, listed as e4): 8.90% and 10.1% and 10.5%
Q3: FITC-A+ , PE-A- Freq. of Parent (HeLa cells [2]; 6 μM, 72 h, listed as e4): 3.61% and 5.29% and 2.69%
Q2+Q3 (column without head, sum on percent scale) (HeLa cells [2]; 6 μM, listed as e4): 12.51 and 15.39 and 13.19
Q1 (flow cytometry quadrant, Figure 4A) (HeLa cells [2]; 12 μM, 72 h): 2.40%
Q4 (flow cytometry quadrant, Figure 4A) (HeLa cells [2]; 12 μM, 72 h): 5.68%
Q2: FITC-A+ , PE-A+ Freq. of Parent (HeLa cells [2]; 12 μM, 72 h): 86.4%
Q3: FITC-A+ , PE-A- Freq. of Parent (HeLa cells [2]; 12 μM, 72 h): 5.49%
Q2: FITC-A+ , PE-A+ Freq. of Parent (HeLa cells [2]; 12 μM, 72 h, listed as e4): 86.4% and 80.4% and 81.8%
Q3: FITC-A+ , PE-A- Freq. of Parent (HeLa cells [2]; 12 μM, 72 h, listed as e4): 5.49% and 3.94% and 3.82%
cell apoptosis in HeLa cells, percentage (HeLa cells [2]; 12 μM, 72 h, three independent experiments): 87.28%
Q2+Q3 (column without head, sum on percent scale) (HeLa cells [2]; 12 μM, listed as e4): 91.89 and 84.34 and 85.62
effect on cell colony formation (HeLa cells [3]; 6 μM): decrease the number of colonies
effect on cell colony formation (HeLa cells [3]; 12 μM): entirely inhibited
Number of Colonies /well (HeLa cells [3]; 12 uM, repeats 1-3): 0
